Measurements taken from patent US9504702B2, “Methods of inhibition of protein fucosylation in vivo using fucose analogs” (Seattle Genetics, Inc., priority 2010, dated 2016).
Read-outs that look alike come from different tables or passages of the source.

How the values were obtained:
[1] = tested on: antibody core fucosylation (CHO DG44 cell line producing humanized IgG1 anti-CD70 antibody h1F6); experiment: Inhibition of antibody core fucosylation in CHO DG44 cell culture producing h1F6; format: cell-based; settings: day 5, CHO DG44 h1F6; for Inhibition at 50 μM: 50 μM fucose analog
Description: (§1) Fucose analogs have been evaluated for their effect on antibody core fucosylation at concentrations of 50 μM and 1 mM generally as described in Published US Patent Application 2009-0317869. Briefly, the protocol was as follows: A CHO DG44 cell line producing a humanized IgG1 anti-CD70 monoclonal antibody, h1F6 (see International Patent Publication WO 06/113909) was cultured at 7.5×10^5 cells per mL in 2 mLs of CHO culture media at 37°, 5% CO2 and shaking at 100 RPM in a 6 well tissue culture plate. Media was supplemented with insulin like growth factor (IGF), penicillin, streptomycin and either 1 mM or 50 μM of the fucose analog. On day 5 post inoculation, the culture was centrifuged at 13000 RPM for 5 minutes to pellet the cells; antibodies were then purified from supernatant.
(§2) Antibody purification was performed by applying the conditioned media to protein A resin pre-equilibrated with 1× phosphate buffered saline (PBS), pH 7.4. After washing resin with 20 resin bed volumes of 1×PBS, antibodies were eluted with 5 resin bed volumes of Immunopure IgG elution buffer (Pierce Biotechnology, Rockford, Ill.). A 10% volume of 1M Tris pH 8.0 was added to neutralize the eluted fraction.

[2] = tested on: antibodies (h1F6 produced by CHO DG44 cell line); experiment: Incorporation of fucose analogs into antibodies in CHO DG44 cell culture; format: cell-based
Description: as §1, §2
Certain other fucose analogs were tested for their ability to be incorporated into antibodies. These fucose analogs were tested at concentrations of 50 μM and 1 mM using the methodology as described above.

[3] = tested on: LP-1, a human multiple myeloma cell line (IgG fucosylation); experiment: Fucosylation of LP-1-generated IgG, AOL dot blot; format: cell-based; settings: for % of control fucosylated IgG value / dot blot results (% fucose signal of control) / inhibition of IgG fucosylation in human cells (decrease in AOL signal, dot blot): 100 μM; for % of control fucosylated IgG value / activity at 100 µM: 5 days, AOL dot blot, multiple samples separated by semicolon; for % of control fucosylated IgG value / activity at 100 µM / inhibition of IgG fucosylation in human cells (decrease in AOL signal, dot blot): LP-1 cells; for dot blot results (% fucose signal of control): LP-1-generated IgG; for activity at 100 µM: Homo sapiens, LP-1, 120 h, read-out: % of control fucosylated IgG value
Description: To further evaluate the activities of different fucose analogs, 48 different fucose analogs and other four glycosylation inhibitors were tested for their ability to affect the fucosylation the LP-1-generated IgG. LP-1 cells (250,000 cells/mL, 3 mL per compound in 6-well plates) were incubated with 100 μM of each fucose analog for 5 days at 37° C. with a humidified atmosphere of 5% CO2 in IgG-depleted tissue culture media (90% RPMI with 10% IgG-depleted heat inactivated FBS). The IgG was isolated as described above using only 0.5 mL of MabSelect™ protein A resin slurry and one spin cup per sample with elution in 400 μL of IgG elution buffer into 25 μL of 9 M Tris buffer, pH 9. The eluates were concentrated to 10-20 μL per sample and 2 μL of each of the concentrated eluates were dotted onto a nitrocellulose membrane and stained with Ponceau S to estimate and adjust the sample loading for AOL staining. From this estimation of total protein in each sample, approximately 0.5 μg of each sample was dotted onto the membrane, air-dried, and stained with Ponceau S. An image of this stained membrane was captured using an Alpha Innotech FlourChem® Q system. The membrane was then blocked with 5% Bovine Serum Albumin (BSA) in Tris Buffered Saline (TBS) for 1 hr, washed with TBST (TBS with […]) 3 times and then incubated with 5 μg/ml biotinylated-AOL for 1 hr. The membrane was washed again with TBST 3 times, followed by Streptavidin-HRP incubation for 30 min and final washes with TBST 3 times.

[4] = tested on: LP-1 cells (1,6-fucosylation on the antibody); experiment: Fucosylation status of LP-1-generated IgG by reducing PLRP-MS; format: cell-based, human; settings: 100 μM, 5 days; for PLRP/MS (inhibition or incorporation): in words
Source text: To further define the results of the AOL dot blot, samples of the IgGs produced by cells treated with the following fucose analogs (that gave moderate to strong decreases in the dot blot AOL signal) were isolated and examined by reducing PLRP-MS to verify the fucosylation status using the MW of the heavy chain: alkynyl fucose peracetate; 5-vinylfucose tetraaceate; 5-methylketofucose tetraacetate; 6-bromofucose tetraacetate; 6-fluorofucose tetraacetate; 5-ethylfucose tetraacetate; 5-epoxyfucose tetraacetate; 6′6-difluorofucose tetraacetate; 6-keto-6-ethyl fucose tetraacetate; and 2-fluorofucose peracetate.
40 mL samples of LP-1 cells (250,000 cells/mL) were treated with 100 μM of a fucose analog for 5 days as described above, and the IgGs were purified as described using protein A resin. The yields were estimated by UV spectroscopy assuming an extinction coefficient of 1.4 AU/(mg/mL). Seven of the ten compounds yielded enough IgG to perform the analysis (use of SGD-2067, SGD-1964, and SGD-2020 yielded <10 μg of IgG, likely due to toxicity of the analogs to the cells). The remaining IgGs were reduced with 10 mM DTT at 37° C. for 15 min and were separated on PLRP followed by MS analysis using a QTOF mass spectrometer. The resulting heavy chain peaks were examined and compared to the IgG generated by untreated cells.
The mass spectrometry signals were evaluated by comparing the peak height of the heavy chain versus heavy chain minus fucose and heavy chain minus fucose plus the mass of the fucose analog (which would arise if there was incorporation of the analog into the antibody carbohydrate).

[5] = concentration not given in the cell (tested at 50 μM and 1 mM)

Compound | Inhibition at 50 μM [1] | Inhibition at 1 mM ([1]; 1 mM fucose analog) | % of control fucosylated IgG value [3] | % Incorporation ([2]; 50 uM) | % Incorporation ([2]; 1 mM) | dot blot results (% fucose signal of control) [3] | PLRP/MS (inhibition or incorporation) [4] | further results
6-allene fucose tetraacetate [SGD-2097] | 23% | 34% | 45 % of control |  |  |  |  | % Incorporation [2, 5]: ~30%
CC[C@@H]1OC(O)[C@@H](O)[C@H](O)[C@@H]1O (stereo partly drawn) [5-ethyl fucose, (3S,4R,5S,6S)-6-ethyl-tetrahydro-2H-pyran-2,3,4,5-tetraol] |  |  |  | >80% | >80% |  |  | 
CC(=O)OC1O[C@@H]([C@]2(C)CO2)[C@@H](OC(C)=O)[C@@H](OC(C)=O)[C@@H]1OC(C)=O (stereo partly drawn) [5-methyloxiran-arabinose tetraacetate, (3S.4R.5S.6R)-6-((S)-2-methyloxiran-2-yl)-tetrahydro-2H-pyran-2,3,4,5-tetrayl tetraacetate] | ~0% | ~35-40% |  |  |  |  |  | % Incorporation [2, 5]: ~60%
C=C(C)[C@@H]1OC(OC(C)=O)[C@@H](OC(C)=O)[C@H](OC(C)=O)[C@@H]1OC(C)=O (stereo partly drawn) [Isopropenyl peracetyl fucose, (3S,4R,5R,6S)-6-(prop-1-en-2-yl)-tetrahydro-2H-pyran-2,3,4,5-tetrayl tetraacetate] |  |  |  | >80% (1 mM and 50 uM) | >80% (1 mM and 50 uM) |  |  | 
C=CC1OC(OC(C)=O)C(OC(C)=O)C(OC(C)=O)C1OC(C)=O (stereo not drawn) [SGD-1922, 5-ethylenylarabinose tetraacetate] | ~0% | ~4% | 2 % of control |  |  | 2 % fucose signal of control | Full incorporator | 
C#CC[C@@H]1OC(OC(C)=O)[C@@H](OC(C)=O)[C@H](OC(C)=O)[C@@H]1OC(C)=O (stereo partly drawn) [SGD-1987, (3S,4R,5R,6S)-6-(prop-2-ynyl)-tetrahydro-2H-pyran-2,3,4,5-tetrayl tetraacetate] |  |  |  |  | 80% (1 mM) |  |  | Inhibition at 50 μM ([1]; 120 h, read-out: Inhibition at 50 μM): ~10%; inhibition at 1000 µM ([1]; 120 h, 1 mM fucose analog): 10 to 20%; activity at 100 µM [3]: 38%
CC(=O)OC1OC(CF)[C@@H](OC(C)=O)[C@@H](OC(C)=O)[C@@H]1OC(C)=O (stereo partly drawn) [SGD-1988, (3S,4R,5S)-6-(fluoromethyl)tetrahydro-2H-pyran-2,3,4,5-tetrayl tetraacetate] |  |  |  | >90% | >90% | 15 % fucose signal of control | Full incorporator | inhibition of IgG fucosylation in human cells (decrease in AOL signal, dot blot) [3]: potentially strong inhibitors; activity at 100 µM [3]: 15%
CC[C@@H]1OC(OC(C)=O)[C@@H](OC(C)=O)[C@H](OC(C)=O)[C@H]1OC(C)=O (stereo partly drawn) [SGD-1989, (3S,4R,5S,6S)-6-ethyl-tetrahydro-2H-pyran-2,3,4,5-tetrayl tetraacetate] |  |  |  | >90% | >90% | 11 % fucose signal of control | Fully incorporated | inhibition of IgG fucosylation in human cells (decrease in AOL signal, dot blot) [3]: potentially strong inhibitors; activity at 100 µM [3]: 11%
CC(=O)OC1OC(C(F)F)C(OC(C)=O)C(OC(C)=O)C1OC(C)=O (stereo not drawn) [SGD-2046, 6′6-difluoro fucose tetraacetate] | >80% | >80% | 2 % of control |  |  | 2 % fucose signal of control | Partial incorporator | inhibition of IgG fucosylation in human cells (decrease in AOL signal, dot blot) [3]: potentially strong inhibitors; PLRP/MS fucose inhibition ([4]; heavy chain peak heights): ~33%
alkynyl fucose tetranicotinate [SGD-2047] | >80% | >80% | 50 % of control |  |  |  |  | 
benzyloxy fucose tetraacetate [SGD-2048] | 0% | 75% | 114 % of control |  |  |  |  | 
